These are literature values, as cited in PMC9851200, “Multiparameter phenotypic screening for endogenous TFEB and TFE3 translocation identifies novel chemical series modulating lysosome function” (Autophagy, 2022).

Holding throughout (parameters): method as in original PKIS2 published data
Series [1] has as its target kinases (KINOMEscan panel) (Homo sapiens, UniProt Q99558). The settings on record: kinase MAP3K14; Published KINOMEscan; ref original PKIS2 published data; cited from earlier work.
The target in series [2] is kinases (KINOMEscan panel) (Homo sapiens, UniProt P50750). As to conditions: kinase CDK9; Published KINOMEscan; ref original PKIS2 published data; cited from earlier work.
Series [3] addresses kinases (KINOMEscan panel) (Homo sapiens, UniProt P15056). As to conditions: BRAF; Published KINOMEscan; ref original PKIS2 published data; cited from earlier work.
Series [4] has as its target T1, kinases (KINOMEscan panel) (Homo sapiens, UniProt O15111).
T1 sequence (O15111 1-745): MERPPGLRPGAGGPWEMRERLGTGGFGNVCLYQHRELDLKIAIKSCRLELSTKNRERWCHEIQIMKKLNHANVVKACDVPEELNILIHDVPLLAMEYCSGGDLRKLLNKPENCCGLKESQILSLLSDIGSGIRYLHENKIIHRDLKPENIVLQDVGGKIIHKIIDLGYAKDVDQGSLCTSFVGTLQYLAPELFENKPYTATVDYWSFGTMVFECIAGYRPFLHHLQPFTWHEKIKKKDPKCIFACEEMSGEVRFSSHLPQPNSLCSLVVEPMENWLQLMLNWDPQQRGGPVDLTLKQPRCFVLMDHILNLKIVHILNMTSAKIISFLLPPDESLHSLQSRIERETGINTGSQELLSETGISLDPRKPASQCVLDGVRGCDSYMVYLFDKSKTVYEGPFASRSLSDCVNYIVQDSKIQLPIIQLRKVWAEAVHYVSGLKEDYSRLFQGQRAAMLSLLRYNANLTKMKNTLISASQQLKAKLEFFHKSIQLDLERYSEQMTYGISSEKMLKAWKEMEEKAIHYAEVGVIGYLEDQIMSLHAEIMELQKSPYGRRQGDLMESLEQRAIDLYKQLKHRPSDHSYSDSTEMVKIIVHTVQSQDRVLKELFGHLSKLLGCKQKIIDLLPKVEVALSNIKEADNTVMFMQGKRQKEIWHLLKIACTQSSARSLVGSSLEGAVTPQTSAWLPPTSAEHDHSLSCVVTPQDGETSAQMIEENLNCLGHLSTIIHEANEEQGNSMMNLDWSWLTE
As to conditions: cited from earlier work.

Series [5] deals with kinases (KINOMEscan panel) (Homo sapiens, UniProt Q14012). The settings on record: CAMK1; Published KINOMEscan; ref original PKIS2 published data; cited from earlier work.
In series [6] the target is kinases (KINOMEscan panel) (Homo sapiens, UniProt Q86Y07). As to conditions: Published KINOMEscan; ref original PKIS2 published data; cited from earlier work.
Series [7] deals with kinases (KINOMEscan panel) (Homo sapiens, UniProt Q9UQM7). The settings on record: kinase CAMK2A; Published KINOMEscan; ref original PKIS2 published data; cited from earlier work.
In series [8] the target is T2, kinases (KINOMEscan panel) (Homo sapiens, UniProt P78356).
T2 sequence (P78356 1-416): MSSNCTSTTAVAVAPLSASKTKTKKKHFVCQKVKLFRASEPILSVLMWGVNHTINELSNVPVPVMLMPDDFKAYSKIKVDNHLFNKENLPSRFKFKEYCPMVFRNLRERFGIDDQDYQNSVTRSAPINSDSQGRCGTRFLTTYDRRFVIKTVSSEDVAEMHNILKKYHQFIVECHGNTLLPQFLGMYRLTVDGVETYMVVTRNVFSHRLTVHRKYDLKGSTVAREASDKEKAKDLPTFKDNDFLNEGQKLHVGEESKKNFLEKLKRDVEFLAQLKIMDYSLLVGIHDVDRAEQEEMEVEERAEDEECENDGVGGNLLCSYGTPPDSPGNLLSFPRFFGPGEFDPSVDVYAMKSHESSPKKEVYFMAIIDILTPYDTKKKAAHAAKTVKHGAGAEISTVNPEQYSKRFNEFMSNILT
The settings on record: PIP4K2B; Published KINOMEscan; ref original PKIS2 published data; cited from earlier work.

Series [9] concerns the target kinases (KINOMEscan panel) (Homo sapiens, UniProt Q00535). As to conditions: Published KINOMEscan; ref original PKIS2 published data; cited from earlier work.
Series [10] addresses kinases (KINOMEscan panel) (Homo sapiens, UniProt P10721). As to conditions: Published KINOMEscan, ref original PKIS2 published data, cited from earlier work.

kinases (KINOMEscan panel) (Homo sapiens, UniProt P10721), sequence (P10721 26-976): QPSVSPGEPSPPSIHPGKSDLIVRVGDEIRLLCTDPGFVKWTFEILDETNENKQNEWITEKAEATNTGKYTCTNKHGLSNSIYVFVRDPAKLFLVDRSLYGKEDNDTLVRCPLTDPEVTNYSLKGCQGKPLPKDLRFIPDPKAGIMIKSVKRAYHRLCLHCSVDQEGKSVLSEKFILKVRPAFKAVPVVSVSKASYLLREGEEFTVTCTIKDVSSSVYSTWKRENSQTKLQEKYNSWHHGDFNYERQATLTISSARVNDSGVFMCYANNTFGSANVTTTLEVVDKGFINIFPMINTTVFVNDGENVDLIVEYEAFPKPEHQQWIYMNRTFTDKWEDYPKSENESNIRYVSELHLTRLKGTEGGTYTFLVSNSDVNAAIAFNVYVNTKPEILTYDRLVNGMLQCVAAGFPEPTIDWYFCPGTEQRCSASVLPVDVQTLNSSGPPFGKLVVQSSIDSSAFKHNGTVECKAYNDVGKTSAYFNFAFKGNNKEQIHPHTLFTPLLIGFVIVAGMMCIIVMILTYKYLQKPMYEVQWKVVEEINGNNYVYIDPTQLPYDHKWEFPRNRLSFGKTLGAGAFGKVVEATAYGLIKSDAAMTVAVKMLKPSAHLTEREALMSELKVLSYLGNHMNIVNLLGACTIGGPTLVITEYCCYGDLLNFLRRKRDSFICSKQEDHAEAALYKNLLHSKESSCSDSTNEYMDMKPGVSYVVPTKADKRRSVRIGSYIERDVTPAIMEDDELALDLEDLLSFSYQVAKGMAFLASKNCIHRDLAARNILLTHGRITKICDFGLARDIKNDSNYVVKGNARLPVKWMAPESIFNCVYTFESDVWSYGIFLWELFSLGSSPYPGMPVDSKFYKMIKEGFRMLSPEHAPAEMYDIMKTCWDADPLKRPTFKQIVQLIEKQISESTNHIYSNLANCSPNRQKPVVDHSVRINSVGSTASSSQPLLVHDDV
kinases (KINOMEscan panel) (Homo sapiens, UniProt P50750), sequence (P50750 whole entry): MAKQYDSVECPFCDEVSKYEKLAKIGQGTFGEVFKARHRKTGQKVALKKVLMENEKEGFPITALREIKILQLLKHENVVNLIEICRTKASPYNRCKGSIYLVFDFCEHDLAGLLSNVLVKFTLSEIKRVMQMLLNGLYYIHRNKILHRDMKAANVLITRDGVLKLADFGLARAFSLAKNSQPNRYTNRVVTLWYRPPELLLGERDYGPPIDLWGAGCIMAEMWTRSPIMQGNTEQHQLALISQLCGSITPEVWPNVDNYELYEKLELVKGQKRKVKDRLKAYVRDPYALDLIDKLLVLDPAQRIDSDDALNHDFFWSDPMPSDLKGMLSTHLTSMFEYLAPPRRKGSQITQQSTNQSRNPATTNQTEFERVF
kinases (KINOMEscan panel) (Homo sapiens, UniProt P15056), sequence (P15056 whole entry): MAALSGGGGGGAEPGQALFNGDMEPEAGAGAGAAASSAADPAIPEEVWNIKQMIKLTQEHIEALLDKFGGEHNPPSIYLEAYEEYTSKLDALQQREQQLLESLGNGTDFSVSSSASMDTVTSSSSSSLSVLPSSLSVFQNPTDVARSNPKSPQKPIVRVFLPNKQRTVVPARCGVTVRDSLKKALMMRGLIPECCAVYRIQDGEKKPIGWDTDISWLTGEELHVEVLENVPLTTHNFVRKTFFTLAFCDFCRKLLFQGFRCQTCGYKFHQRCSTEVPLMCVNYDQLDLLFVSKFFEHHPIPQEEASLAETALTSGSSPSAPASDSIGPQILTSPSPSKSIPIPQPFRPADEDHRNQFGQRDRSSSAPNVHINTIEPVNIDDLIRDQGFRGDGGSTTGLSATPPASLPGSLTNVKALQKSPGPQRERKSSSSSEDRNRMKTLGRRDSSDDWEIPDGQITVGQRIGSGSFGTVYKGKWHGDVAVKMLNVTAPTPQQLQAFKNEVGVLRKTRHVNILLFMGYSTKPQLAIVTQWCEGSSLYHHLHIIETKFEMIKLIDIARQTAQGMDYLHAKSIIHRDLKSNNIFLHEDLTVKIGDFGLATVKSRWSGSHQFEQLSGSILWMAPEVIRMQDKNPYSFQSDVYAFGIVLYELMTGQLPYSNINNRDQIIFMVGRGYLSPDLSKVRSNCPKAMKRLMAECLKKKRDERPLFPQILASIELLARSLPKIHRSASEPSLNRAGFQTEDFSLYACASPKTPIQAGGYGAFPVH
kinases (KINOMEscan panel) (Homo sapiens, UniProt Q86Y07), sequence (Q86Y07 whole entry): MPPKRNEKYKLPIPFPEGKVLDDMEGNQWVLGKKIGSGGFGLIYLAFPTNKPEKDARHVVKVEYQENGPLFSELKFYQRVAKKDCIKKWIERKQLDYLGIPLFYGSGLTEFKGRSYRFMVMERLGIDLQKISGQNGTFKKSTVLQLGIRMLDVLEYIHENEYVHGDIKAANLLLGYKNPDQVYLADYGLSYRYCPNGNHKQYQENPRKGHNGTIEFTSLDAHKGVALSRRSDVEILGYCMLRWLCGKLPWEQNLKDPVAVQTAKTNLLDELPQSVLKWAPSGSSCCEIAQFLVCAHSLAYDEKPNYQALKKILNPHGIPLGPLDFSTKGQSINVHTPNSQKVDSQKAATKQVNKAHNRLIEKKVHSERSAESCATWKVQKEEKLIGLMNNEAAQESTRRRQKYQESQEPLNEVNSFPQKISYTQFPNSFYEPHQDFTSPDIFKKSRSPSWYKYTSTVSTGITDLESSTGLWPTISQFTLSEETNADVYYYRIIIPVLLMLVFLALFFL
kinases (KINOMEscan panel) (Homo sapiens, UniProt Q9UQM7), sequence (Q9UQM7 whole entry): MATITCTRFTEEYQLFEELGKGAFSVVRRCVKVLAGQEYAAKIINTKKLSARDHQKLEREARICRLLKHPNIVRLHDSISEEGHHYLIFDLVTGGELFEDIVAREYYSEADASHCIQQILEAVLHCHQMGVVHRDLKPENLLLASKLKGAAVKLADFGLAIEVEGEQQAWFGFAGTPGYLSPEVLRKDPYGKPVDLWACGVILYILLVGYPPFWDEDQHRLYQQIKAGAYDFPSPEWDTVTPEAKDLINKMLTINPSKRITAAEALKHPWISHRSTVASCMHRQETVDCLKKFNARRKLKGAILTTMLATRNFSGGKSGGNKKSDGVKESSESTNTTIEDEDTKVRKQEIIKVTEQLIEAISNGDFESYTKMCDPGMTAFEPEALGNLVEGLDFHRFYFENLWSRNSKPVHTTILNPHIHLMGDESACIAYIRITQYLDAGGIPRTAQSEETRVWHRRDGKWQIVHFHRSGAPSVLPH
kinases (KINOMEscan panel) (Homo sapiens, UniProt Q99558), sequence (Q99558 whole entry): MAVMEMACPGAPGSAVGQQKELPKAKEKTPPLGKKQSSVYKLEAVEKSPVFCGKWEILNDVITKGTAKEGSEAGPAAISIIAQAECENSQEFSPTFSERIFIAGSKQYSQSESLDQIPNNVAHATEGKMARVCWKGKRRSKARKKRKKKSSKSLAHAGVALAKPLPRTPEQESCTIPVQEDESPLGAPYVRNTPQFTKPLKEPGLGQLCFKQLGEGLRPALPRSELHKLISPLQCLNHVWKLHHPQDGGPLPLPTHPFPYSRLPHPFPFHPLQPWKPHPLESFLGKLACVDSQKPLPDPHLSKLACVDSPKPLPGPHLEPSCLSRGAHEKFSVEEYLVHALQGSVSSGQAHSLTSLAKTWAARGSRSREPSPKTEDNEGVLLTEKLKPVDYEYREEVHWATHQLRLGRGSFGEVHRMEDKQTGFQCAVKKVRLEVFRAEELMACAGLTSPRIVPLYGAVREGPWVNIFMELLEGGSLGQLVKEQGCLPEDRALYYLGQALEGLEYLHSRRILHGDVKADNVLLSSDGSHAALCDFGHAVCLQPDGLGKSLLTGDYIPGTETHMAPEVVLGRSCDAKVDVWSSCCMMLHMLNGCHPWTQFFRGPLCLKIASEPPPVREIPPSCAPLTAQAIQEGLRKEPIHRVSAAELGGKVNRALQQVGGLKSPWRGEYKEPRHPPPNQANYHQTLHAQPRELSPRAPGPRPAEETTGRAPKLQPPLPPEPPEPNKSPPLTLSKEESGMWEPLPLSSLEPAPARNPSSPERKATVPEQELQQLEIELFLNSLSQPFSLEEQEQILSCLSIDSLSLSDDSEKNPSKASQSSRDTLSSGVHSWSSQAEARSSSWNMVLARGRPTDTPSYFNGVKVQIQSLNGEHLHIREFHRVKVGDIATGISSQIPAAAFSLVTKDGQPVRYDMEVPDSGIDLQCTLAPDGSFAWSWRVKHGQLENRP
kinases (KINOMEscan panel) (Homo sapiens, UniProt Q00535), sequence (Q00535 whole entry): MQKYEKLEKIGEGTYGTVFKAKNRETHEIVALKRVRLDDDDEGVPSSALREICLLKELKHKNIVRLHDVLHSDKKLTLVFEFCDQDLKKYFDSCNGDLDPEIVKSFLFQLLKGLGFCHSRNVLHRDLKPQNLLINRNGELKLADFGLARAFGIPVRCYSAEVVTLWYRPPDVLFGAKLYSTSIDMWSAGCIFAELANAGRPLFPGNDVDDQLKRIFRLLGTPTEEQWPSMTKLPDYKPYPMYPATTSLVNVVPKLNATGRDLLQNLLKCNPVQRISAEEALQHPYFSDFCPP
kinases (KINOMEscan panel) (Homo sapiens, UniProt Q14012), sequence (Q14012 whole entry): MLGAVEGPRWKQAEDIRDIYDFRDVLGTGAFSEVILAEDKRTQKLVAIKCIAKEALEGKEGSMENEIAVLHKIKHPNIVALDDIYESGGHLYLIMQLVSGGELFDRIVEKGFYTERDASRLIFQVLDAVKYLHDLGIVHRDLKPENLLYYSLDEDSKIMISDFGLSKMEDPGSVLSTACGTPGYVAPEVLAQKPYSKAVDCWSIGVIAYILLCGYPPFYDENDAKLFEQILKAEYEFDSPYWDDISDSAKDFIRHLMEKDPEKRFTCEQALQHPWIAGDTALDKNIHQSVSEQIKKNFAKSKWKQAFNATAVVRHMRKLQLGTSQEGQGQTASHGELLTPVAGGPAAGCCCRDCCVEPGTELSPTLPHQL

In the case of `Cc1cccc(-c2nc(Nc3ccncc3)c3ccccc3n2)n1` [NK215], in [1], the “KINOMEscan MAP3K14” value is 0. Besides, the “KINOMEscan CDK9” value in series [2] is on record as 0. Besides, the “KINOMEscan BRAF” value in [3] was 0. The “KINOMEscan CHUK/IKK-alpha” value in series [4] is 0. Also, the “KINOMEscan CAMK1” value in series [5] is recorded as 0. Moreover, the “KINOMEscan VRK2” value in [6] is given as 0. Moreover, in [7], the “KINOMEscan CAMK2A” value was 6. Further, the “KINOMEscan PIP4K2B” value in series [8] is 0. In addition, the “KINOMEscan CDK5” value in series [9] is on record as 0. In series [10] (KIT-autoinhibited), the “KINOMEscan KIT-autoinhibited” value is 0. Besides, the “KINOMEscan KIT” value in series [10] (KIT) is given as 10.
